These are literature values, as cited in patent US20180271836A1, “TOPICAL NON-AQUEOUS PHARMACEUTICAL FORMULATIONS CONTAINING AN ALKYL SULFOXIDE FOR THE TREATMENT OF TOPICAL REFERENCE INFECTIONS” (priority 2012, published 2018).

As to `Clc1ccc(COC(Cn2ccnc2)c2ccc(Cl)cc2Cl)c(Cl)c1` (stereo not shown) [miconazole], the pKa is given as 6.5.

What is called pKa is the negative logarithm of the acid dissociation constant.
